This is an account of results in patent US12281083B2, “2-substituted amino-naphth (1,2-d) imidazol-5-one compounds of pharmaceutically acceptable salts thereof” (PTC Therapeutics, Inc., priority 2016, dated 2025).

The assay deals with Friedreich ataxia patient-derived human dermal fibroblasts. The experiment in a line: Cell viability evaluation test using human dermal fibroblasts derived from a Friedreich ataxia patient (BSO stress). Conditions: Fibroblast, rescue of cell viability, 30 μM BSO, 48 hours, Calcein-AM fluorescence, no BSO = 100%, BSO only = 0%. The class given is cell-based. As to the method:
Cell Viability Evaluation Test Using Human Dermal Fibroblasts Derived from a Friedreich Ataxia Patient
Compounds described herein were tested for their ability to rescue Friedreich ataxia patient-derived dermal fibroblasts stressed by the addition of L-buthionine-(S,R)-sulfoximine (BSO).
A MEMα medium and a Medium 199 medium were obtained from Thermo Scientific, and fetal bovine serum was obtained from DS Pharma. Basic fibroblast growth factor (b-FGF) was purchased from Funakoshi Co., Ltd. and epidermal growth factor (EGF) was purchased from PeproTech Inc. L-Buthionine-(S,R)-sulfoximine and bovine pancreas-derived insulin were purchased from Sigma. Calcein-AM was purchased from DOJINDO. An assay medium is a medium of 64% MEMα medium and 25% Medium 199 medium, and contains 10% fetal bovine serum, EGF whose final concentration is 10 ng/ml, 10 ng/ml of bFGF, and 10 μg/mL insulin. Cells were purchased from Coriell Institute.
A test compound was dissolved in DMSO to make a 1 mM or 10 mM stock solution. From this stock solution, serially diluted solutions were further prepared using DMSO and used in an assay.
Friedreich ataxia patient-derived human dermal fibroblasts were suspended in an assay medium, seeded into a 384-well plate at 650 cells/well/20 μl, and incubated at 37° C. in a 5% carbon dioxide incubator overnight. A test compound solution prepared in an assay medium from the serially diluted solution (DMSO) at 5 times higher than the final concentration was added in 10 μL per well of the cell-seeded plate. Then, 10 μL of 150 μM BSO solution was added. The amount of a reaction solution was adjusted to be finally 50 μL, and the final BSO concentration was made at 30 μM. The plate was incubated at 37° C. in 5% CO2 for 48 hours, and then media were removed from all wells, and 20 μl of a Calcein-AM solution, which had been 550-fold diluted by PBS, was added to each well. The plate was incubated at 37° C. for 20 to 30 minutes, and then fluorescence (485 nm/525 nm of excitation/radiation wavelength) was measured by a fluorescence plate reader.
The degree of the viability of fibroblasts that were not treated with BSO was regarded as 100%, the degree of the viability of cells that were treated with BSO only (without a compound) was regarded as 0%, and the viability of cells that were treated with a compound was calculated.
As usually defined, the EC50 is the concentration needed to bring the measured effect to its halfway point. For the molecule `CN(C)C1=NC2=C(c3cccc4cccnc34)C(=O)c3ccccc3C2=N1` [Example 14], the EC50 was 41 nM. Consider `COc1cccc(C2=C3N=C(N(C)C)N=C3c3ccccc3C2=O)c1Cl` [Example 94], for which the half-maximal effective concentration (EC50) is 22.6 nM. In the case of `CN(C)C1=NC2=C(c3ccc4c(c3)OCCCO4)C(=O)c3ccccc3C2=N1` [Example 79], the EC50 was 39.1 nM. Consider `Cc1nn(C)cc1C1=C2N=C(N(C)C)N=C2c2ccccc2C1=O` [Example 75], for which the EC50 is 12.1 nM. The same measure for `CN(C)C1=NC2=C(c3ccccc3F)C(=O)c3ccccc3C2=N1` [Example 5]: 14 nM.

For the molecule `CN(C)C1=NC2=C(c3ccccc3C(F)(F)F)C(=O)c3ccccc3C2=N1` [Example 20], the EC50 was < 3 nM. As to `CN(C)C1=NC2=C(c3ccccc3N3CCOCC3)C(=O)c3ccccc3C2=N1` [Example 11], the EC50 was 6.4 nM. As for `Cc1cc(C(F)(F)F)ccc1C1=C2N=C(N(C)C)N=C2c2ccccc2C1=O` [Example 23], the EC50 was 5.9 nM.

Regarding `Cc1ccccc1C1=C2N=C(N(C)C)N=C2c2ccccc2C1=O` [Example 4], the EC50 is 3.7 nM.

Regarding `CN(C)C1=NC2=C(c3cnn(C)c3)C(=O)c3ccccc3C2=N1` [Example 38], the half-maximal effective concentration (EC50) was 18.8 nM. In the case of `CCN(CC)C1=NC2=C(c3cccc(OC)c3C)C(=O)c3ccccc3C2=N1` [Example 88], the concentration giving a half-maximal response (EC50) is 17.1 nM. Consider `CN(C)C1=NC2=C(c3ccc4c(c3)OCCN4C)C(=O)c3ccccc3C2=N1` [Example 77], for which the EC50 is 17 nM.

With `CN1CCN(c2ccc(C3=C4N=C(N(C)C)N=C4c4ccccc4C3=O)cc2)CC1` [Example 80], the EC50 was 10 nM. `CCOc1ccc(C2=C3N=C(N(C)C)N=C3c3ccccc3C2=O)c(C)c1` [Example 63]: the EC50 was 18.4 nM.

With `CCN(CC)C1=NC2=C(c3cccc4cn[nH]c34)C(=O)c3ccccc3C2=N1` [Example 51], the EC50 was 11.8 nM.

For the molecule `CCN(CC)C1=NC2=C(c3c(C)noc3C)C(=O)c3ccccc3C2=N1` [Example 46], the EC50 was 14.9 nM.

Regarding `COc1ccc(C2=C3N=C(N(C)C)N=C3c3ccccc3C2=O)cn1` [Example 3], the EC50 is < 20 nM. Take `CN(C)C1=NC2=C(c3nn(C)c4ccccc34)C(=O)c3ccccc3C2=N1` [Example 42]: the 50% effective concentration (EC50) is 5.1 nM. In the case of `COc1ccc(C2=C3N=C(N(C)C)N=C3c3ccccc3C2=O)c(F)c1` [Example 8], the EC50 is 10 nM. With `COc1ccc(C2=C3N=C(N(C)C)N=C3c3ccccc3C2=O)cc1` [Example 1, 2-(Dimethylamino)-4-(4-methoxyphenyl)-5H-naphth[1,2-d]imidazol-5-one], the EC50 was 20 to 100 nM. As for `CC(=O)Nc1cccc(C2=C3N=C(N(C)C)N=C3c3ccccc3C2=O)c1` [Example 59], the EC50 was 4 nM. Take `Cc1nc(-c2ccccc2)sc1C1=C2N=C(N(C)C)N=C2c2ccccc2C1=O` [Example 78]: the EC50 was > 100 nM. Take `Cc1ccc(C2=C3N=C(N(C)C)N=C3c3ccccc3C2=O)c(C)c1` [Example 44]: the EC50 is 17 nM. As to `Cc1ccncc1C1=C2N=C(N(C)C)N=C2c2ccccc2C1=O` [Example 32], the EC50 is 6 nM. In the case of `CN(C)C1=NC2=C(c3ccccc3N(C)C)C(=O)c3ccccc3C2=N1` [Example 17], the EC50 is 8.5 nM. With `COc1ccc(C2=C3N=C(N(C)C)N=C3c3ccccc3C2=O)c(C)c1` [Example 16], the EC50 is 9.1 nM. Take `Cc1cc(N2CCN(C)CC2)ccc1C1=C2N=C(N(C)C)N=C2c2ccccc2C1=O` [Example 62]: the 50% effective concentration (EC50) was 5.5 nM. Take `COCc1cccc(C2=C3N=C(N(C)C)N=C3c3ccccc3C2=O)c1` [Example 43]: the EC50 was 20.1 nM.

Take `CN(C)C1=NC2=C(c3ccccc3Cl)C(=O)c3ccccc3C2=N1` [Example 33]: the EC50 was 16 nM. `COc1ccc(F)c(C2=C3N=C(N(C)C)N=C3c3ccccc3C2=O)c1` [Example 90]: the EC50 is 14 nM. For `CCN(CC)C(=O)c1ccccc1C1=C2N=C(N(CC)CC)N=C2c2ccccc2C1=O` [Example 68], the EC50 was 40.5 nM.

Consider `CC(=O)c1ccc(C2=C3N=C(N(C)C)N=C3c3ccccc3C2=O)c(C)c1` [Example 89], for which the EC50 was 14.3 nM. With `Cc1cc(OC(F)(F)F)ccc1C1=C2N=C(N(C)C)N=C2c2ccccc2C1=O` [Example 26], the EC50 is 7.2 nM. As to `Cc1nn(C)c(C)c1C1=C2N=C(N(C)C)N=C2c2ccccc2C1=O` [Example 35], the EC50 was 2.5 nM.

Consider `CCN(CC)C1=NC2=C(c3cccc(OC)c3F)C(=O)c3ccccc3C2=N1` [Example 93], for which the EC50 is 29.1 nM.

Take `Cc1cnccc1C1=C2N=C(N(C)C)N=C2c2ccccc2C1=O` [Example 28]: the EC50 is 4.8 nM.

Consider `CC(C)N1CCN(c2ccc(C3=C4N=C(N(C)C)N=C4c4ccccc4C3=O)cc2)CC1` [Example 74], for which the EC50 was < 3 nM. As for `COc1ccc(C)c(C2=C3N=C(N(C)C)N=C3c3ccccc3C2=O)c1` [Example 83], the concentration for a half-maximal effect (EC50) was 18.3 nM. For `COc1cccc(C2=C3N=C(N(C)C)N=C3c3ccccc3C2=O)c1F` [Example 92], the EC50 was 30.2 nM.

As for `COc1ccccc1C1=C2N=C(N(C)C)N=C2c2ccccc2C1=O` [Example 10], the EC50 is 5.1 nM. For the molecule `Cc1ncccc1C1=C2N=C(N(C)C)N=C2c2ccccc2C1=O` [Example 34], the EC50 was 7 nM.

In the case of `Cc1noc(C)c1C1=C2N=C(N(C)C)N=C2c2ccccc2C1=O` [Example 39], the half-maximal effective concentration (EC50) was 6.1 nM.

For the molecule `COc1ccc(C2=C3N=C(N(C)C)N=C3c3ccccc3C2=O)c(C(F)(F)F)c1` [Example 31], the EC50 is 15 nM.

Consider `CN(C)C1=NC2=C(c3ccccc3C#N)C(=O)c3ccccc3C2=N1` [Example 71, 2-[(2-dimethylamino)-5-oxo-5H-naphth[1,2-d]imidazol-4-yl]benzonitrile], for which the EC50 was 15 nM.

`Cc1cc(C#N)ccc1C1=C2N=C(N(C)C)N=C2c2ccccc2C1=O` [Example 36]: the EC50 was 9.5 nM. Consider `Cc1ccc(C2=C3N=C(N(C)C)N=C3c3ccccc3C2=O)cc1` [Example 2], for which the EC50 is 17 nM. Take `Cc1cccc(C2=C3N=C(N(C)C)N=C3c3ccccc3C2=O)c1` [Example 15]: the concentration giving a half-maximal response (EC50) was 6 nM. The same measure for `CN(C)C1=NC2=C(c3ccc4cnn(C)c4c3)C(=O)c3ccccc3C2=N1` [Example 56]: 14.5 nM. On to `COc1cccc(C2=C3N=C(N(C)C)N=C3c3ccccc3C2=O)c1C` [Example 87], for which the EC50 is 17.1 nM. To `CN(C)C1=NC2=C(c3ccccc3N3CCNCC3)C(=O)c3ccccc3C2=N1` [Example 73] belongs 7.2 nM; to `COc1ccc(Cl)c(C2=C3N=C(N(C)C)N=C3c3ccccc3C2=O)c1` [Example 86], 14.9 nM. `Cc1noc(C)c1C1=C2N=C(N3CCOCC3)N=C2c2ccccc2C1=O` [Example 47]: the EC50 is 4.9 nM.

Turning to `COc1cccc(F)c1C1=C2N=C(N(C)C)N=C2c2ccccc2C1=O` [Example 12], the EC50 is 6.4 nM.

`Cc1cc(F)ccc1C1=C2N=C(N(C)C)N=C2c2ccccc2C1=O` [Example 21]: the EC50 was 7.9 nM. Consider `Cc1c(C2=C3N=C(N(C)C)N=C3c3ccccc3C2=O)cnn1-c1ccccc1` [Example 76], for which the concentration for a half-maximal effect (EC50) is 20.3 nM.

Regarding `COc1ccc(C2=C3N=C(N(C)C)N=C3c3ccccc3C2=O)c(Cl)c1` [Example 82], the EC50 is 16.5 nM. The same measure for `CN(C)C(=O)c1cccc(C2=C3N=C(N(C)C)N=C3c3ccccc3C2=O)c1` [Example 41]: 12.9 nM; for `CN(C)C1=NC2=C(c3ccccc3N3CCCC3)C(=O)c3ccccc3C2=N1` [Example 13]: 5.4 nM. With `CN(C)C1=NC2=C(c3ccc(N(C)C)cc3)C(=O)c3ccccc3C2=N1` [Example 72], the EC50 is 20 to 100 nM. For the molecule `CN(C)C1=NC2=C(c3ccc(N4CCOCC4)cc3)C(=O)c3ccccc3C2=N1` [Example 40], the EC50 was 11.6 nM.
